Assay results: paper PMC10254444, “Targeting Myeloperoxidase Activity and Neutrophil ROS Production to Modulate Redox Process: Effect of Ellagic Acid and Analogues” (Molecules, 2023)
Entries after “also recorded” stand apart in the source; their conditions may differ.

Columns and labels:
[1] = system: PMA-activated neutrophils; assay: ROS production by PMA-activated neutrophils (L012 chemiluminescence); type: cell-based, equine
Method: Equine neutrophils were isolated from whole blood using EDTA disodium salt (1.6 mg/mL) as an anticoagulant. The blood was drawn from the jugular vein of healthy horses bred and fed under identical conditions without medical treatment. All the experiments were realized with the approval of the ethics committee of the Faculty of Veterinary Medicine of the University of Liege (agreement number 1474). Briefly, the neutrophils were isolated at room temperature (18–22 °C) by centrifugation (400× g; 45 min; 20 °C) on a discontinuous Percoll density gradient according to the method previously described. The cells were gently collected and washed with two volumes of physiological saline solution. After the supernatant removal, the cell pellets were re-suspended in 2 mL PBS and counted for further use.
The ROS produced by PMA-activated neutrophils were measured by L012-enhanced chemiluminescence (CL) under an adaptation of the method previously described by Benbarek et al. and Derochette et al.. Neutrophil suspensions were distributed in the wells (neutrophils/well, 143 μL PBS) of a 96-well microtiter plate (White Combiplate 8, Fisher Scientific) and incubated for 10 min at 37 °C with 2 μL of EA or analogue to reach final concentrations of 10^−8 M, 10^−7 M, 10^−6 M, and 10^−5 M. After incubation, 25 μL CaCl2 (10 mM) and 20 μL L-012 (10^−4 M) were added into the wells (final volume of 200 μL). […] A control was performed with neutrophils activated with PMA (positive Ctrl) in the presence of PBS instead of ellagic acid analogue. Another control was performed with PMA-activated neutrophils in the presence of the vehicle solution of ellagic acid or analogue (1% DMSO) (DMSO, final concentration) and was taken as 100% CL response. The negative control was performed with unstimulated neutrophils (NA) with the CL probe alone. The inhibition percentage was calculated using a similar formula (Equation (1)) as described above.

[2] = biological target: T1, human myeloperoxidase (MPO) (Homo sapiens, UniProt P05164); assay: MPO activity by SIEFED assay; type: biochemical
T1 construct: purchased Calbiochem Millipore
T1 sequence (P05164 49-745): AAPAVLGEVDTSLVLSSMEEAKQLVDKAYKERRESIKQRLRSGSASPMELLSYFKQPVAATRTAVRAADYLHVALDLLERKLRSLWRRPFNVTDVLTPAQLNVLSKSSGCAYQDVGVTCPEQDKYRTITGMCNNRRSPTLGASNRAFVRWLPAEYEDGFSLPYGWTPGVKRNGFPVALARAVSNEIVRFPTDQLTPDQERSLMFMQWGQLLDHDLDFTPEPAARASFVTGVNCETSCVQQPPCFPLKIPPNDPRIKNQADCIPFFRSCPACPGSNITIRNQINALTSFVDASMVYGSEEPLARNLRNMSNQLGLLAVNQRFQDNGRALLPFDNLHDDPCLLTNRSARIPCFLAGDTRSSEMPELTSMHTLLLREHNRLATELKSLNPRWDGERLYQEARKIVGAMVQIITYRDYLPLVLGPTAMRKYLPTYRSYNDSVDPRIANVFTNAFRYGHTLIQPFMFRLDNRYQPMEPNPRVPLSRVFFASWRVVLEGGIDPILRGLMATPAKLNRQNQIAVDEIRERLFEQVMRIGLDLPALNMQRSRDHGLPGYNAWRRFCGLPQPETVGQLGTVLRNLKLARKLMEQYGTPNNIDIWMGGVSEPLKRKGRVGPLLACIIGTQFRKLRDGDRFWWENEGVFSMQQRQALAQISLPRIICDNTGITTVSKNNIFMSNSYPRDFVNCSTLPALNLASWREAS
Method: Measurement of the peroxidase activity of MPO was performed by a classical enzymatic assay and by SIEFED assay as described by Nyssen et al.. The MPO solution was prepared with purified human MPO in dilution buffer (PBS 20 mM at pH 7.4 with 5 g/L BSA and 0.1% Tween-20). The solutions of EA or analogue, at final concentrations ranging from 10^−8 M to 10^−5 M, were incubated for 10 min with human MPO at a final concentration of 5 mU/mL before further use. The revelation of MPO activity was performed by monitoring the enzyme-catalyzed oxidation of Amplex Red in the presence of H2O2 (10 μM) and nitrite (4.5 mM) in phosphate buffer at pH 7.4.
Samples with MPO and various concentrations of […] were prepared and incubated as with the classical assay. An amount of 100 μL of each mixture (MPO alone or MPO + EA/DMSO) was then loaded into the wells of a SIEFED microtiter plate coated with rabbit polyclonal antibodies (3 μg/mL) against human MPO and incubated for 2 h at 37 °C in darkness. After washing up the wells, the activity of the enzyme captured by the antibodies was measured by adding 10 μL sodium nitrite solution (4.5 mM, final concentration) and 100 μL of a reactional solution containing 10 μM H2O2 and 40 μM Amplex® in phosphate buffer (50 mM) at pH 7.4. The oxidation of Amplex® Red into the fluorescent adduct resorufin (λexcitation = 544 nm; λemission = 590 nm) was monitored for 30 min at 37 °C with a fluorescent plate reader (Fluoroskan Ascent, Fisher Scientific). As for the MPO direct assay, a control assay set as the relative value of MPO activity was performed with purified MPO in the presence of PBS instead of the samples of EA or analogue dissolved in DMSO. In this SIEFED assay, MPO was bonded by the antibodies into the wells, and EA/analogue was discarded in the washing step before starting the measurement of the enzymatic activity. For both MPO assays, the inhibition percentage was calculated using a similar formula (Equation (1)) as described above.

[3] = ABTS radical cation assay
Method: The ABTS assay was based on the method described by Re et al.. For the generation of ABTS^•+ radicals, sodium persulfate (2.45 mM) aqueous solution was mixed with ABTS (7 mM) and incubated overnight in the dark to obtain a dark-colored solution. Stock solution of ABTS^•+ was then diluted by adding pure methanol (100%) to obtain an absorbance of 0.70 (±0.02) at 734 nm at 30 °C. To obtain more repetition, the ABTS assay was performed using a microplate reader (ThermoLabsystem, Finland). An aliquot of 2 µL of the tested compound (EA or analogue) was added to 198 µL of ABTS^•+, and the decrease in absorbance was monitored at 740 nm after 30 min [32]. During this reaction, the blue-green ABTS radical cation is converted back into its colorless neutral form in the presence of the potential antioxidant molecule. A control consisted of 2 µL of DMSO in 198 µL of ABTS^•+ solution. The reducing capacity was determined according to the formula:% inhibition = (Acontrol − ASample) × 100/AControl(1)

IC50 [3]	SMILES	Inhibition of neutrophil ROS production (in words) [1]	Inhibition of neutrophil ROS production ([1]; highest concentration)	MPO activity, SIEFED assay (in words) [2]	ABTS activity (in words) [3]
–	CN(C)C(=O)Oc1cc2c(=O)oc3c(OC(=O)N(C)C)c(OC(=O)N(C)C)cc4c(=O)oc(c1OC(=O)N(C)C)c2c34 [compound 6, Sevellagic acid]	less active than all the other tested compounds	58%	weak activity or the absence of inhibition activity	no significant activity
6.56 ± 0.37 µM	CCOC1Oc2cc(C(=O)OC)cc(O)c2O1 (stereo not shown) [compound 11, methyl 2-ethoxy-7-hydroxybenzo[d][1,3]dioxole-5-carboxylate]	good inhibitory effect	–	activator of MPO activity; also recorded: promote, rather than inhibit, MPO activity	–
